# Test results from article PMC10856041, “Chemical Epigenetic Regulation Secondary Metabolites Derived from Aspergillus sydowii DL1045 with Inhibitory Activities for Protein Tyrosine Phosphatases” (Molecules, 2024).
# Experiments:
# [1] = test system: A-549 cells; set-up: method as in PMID 18505285; details: read-out: IC50 cytotoxicity against A-549 cells; cited from earlier work
# [2] = test system: K. pneumonia; set-up: method as in PMID 24736857; details: cited from earlier work
# [3] = molecular target: T1, SHP1 (Homo sapiens, UniProt P29350); test: PTP inhibitory activity (p-NPP degradation), SHP1; type: biochemical; details: p-NPP substrate, 37 °C, 30 min, 405 nm; mean ± SD, n = 3
# T1 construct: incubated at 37 °C with 2.5 μg domain protein
# T1 sequence (P29350 244-515 limits assumed): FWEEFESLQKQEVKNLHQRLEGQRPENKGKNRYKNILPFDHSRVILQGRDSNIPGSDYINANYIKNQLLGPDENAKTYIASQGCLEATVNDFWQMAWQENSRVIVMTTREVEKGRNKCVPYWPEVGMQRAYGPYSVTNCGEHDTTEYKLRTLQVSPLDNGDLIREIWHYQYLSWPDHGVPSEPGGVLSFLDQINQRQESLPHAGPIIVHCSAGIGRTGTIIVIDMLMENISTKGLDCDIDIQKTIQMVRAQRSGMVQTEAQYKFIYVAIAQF
# Experimental: (§1) The diabetes-related PTPs (PTP1B, TCPTP, SHP1 and CD45) inhibitory activity of the tested compounds was measured as previously described. The compounds were dissolved in DMSO and incubated at 37 °C with 2.5 μg domain protein, 20 mM 3-(N-Morpholino) propanesulfonic (MOPS), 9 mM p-nitrophenyl phosphate (p-NPP), 50 mM NaCl and 50 mM DTT, pH 7.2. The reaction was performed in a 96-well plate (DMSO as blank control). The reaction was started by adding the assay buffer (50 mM citrate (pH 6.0), 0.1 M NaCl, 1 mM EDTA, and 1 mM dithiothreitol) with a final volume of 150 μL and incubated at 37 °C for 30 min and 10 M NaOH was added to terminate the reaction. The inhibition of PTPs by tested compounds was assessed by measuring the degradation of p-NPP at a wavelength of 405 nm.
# [4] = molecular target: T2, TCPTP (Homo sapiens, UniProt P17706); test: PTP inhibitory activity (p-NPP degradation), TCPTP; type: biochemical; details: p-NPP substrate, 37 °C, 30 min, 405 nm; mean ± SD, n = 3
# T2 construct: incubated at 37 °C with 2.5 μg domain protein
# T2 sequence (P17706 5-275 limits assumed): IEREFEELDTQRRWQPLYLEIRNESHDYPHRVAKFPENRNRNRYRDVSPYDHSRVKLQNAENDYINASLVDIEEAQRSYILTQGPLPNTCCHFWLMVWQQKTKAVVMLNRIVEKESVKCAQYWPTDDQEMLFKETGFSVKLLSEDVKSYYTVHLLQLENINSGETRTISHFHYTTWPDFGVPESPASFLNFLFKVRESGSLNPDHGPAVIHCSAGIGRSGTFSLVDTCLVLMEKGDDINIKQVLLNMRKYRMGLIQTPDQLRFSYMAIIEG
# Experimental: as §1
# [5] = molecular target: T3, PTP1B (Homo sapiens, UniProt P18031); test: PTP inhibitory activity (p-NPP degradation), PTP1B; type: biochemical; details: p-NPP substrate, 37 °C, 30 min, 405 nm; mean ± SD, n = 3
# T3 construct: incubated at 37 °C with 2.5 μg domain protein
# T3 sequence (P18031 3-277 limits assumed): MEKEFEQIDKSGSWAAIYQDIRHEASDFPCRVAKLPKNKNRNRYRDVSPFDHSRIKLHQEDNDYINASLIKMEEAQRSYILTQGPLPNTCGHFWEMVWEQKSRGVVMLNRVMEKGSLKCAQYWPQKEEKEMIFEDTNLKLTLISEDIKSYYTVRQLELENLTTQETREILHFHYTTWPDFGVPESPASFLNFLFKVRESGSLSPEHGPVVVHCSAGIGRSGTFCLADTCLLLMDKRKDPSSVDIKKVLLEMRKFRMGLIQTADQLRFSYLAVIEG
# Experimental: as §1
# [6] = molecular target: T4, CD45 (Homo sapiens, UniProt P08575); test: PTP inhibitory activity (p-NPP degradation), CD45; type: biochemical; details: p-NPP substrate, 37 °C, 30 min, 405 nm; mean ± SD, n = 3
# T4 sequence (P08575 653-912 limits assumed): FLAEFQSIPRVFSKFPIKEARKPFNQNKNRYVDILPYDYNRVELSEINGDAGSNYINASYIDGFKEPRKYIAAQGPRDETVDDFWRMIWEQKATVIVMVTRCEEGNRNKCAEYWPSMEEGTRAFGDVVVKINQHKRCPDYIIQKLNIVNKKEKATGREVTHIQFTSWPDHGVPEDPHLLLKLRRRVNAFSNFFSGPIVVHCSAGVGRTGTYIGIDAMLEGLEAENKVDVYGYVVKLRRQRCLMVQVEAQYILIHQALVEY
# Experimental: as §1
# [7] = test system: nematode; test: anti-nematode activity
# [8] = test system: Staphylococcus aureus; set-up: method as in PMID 32449250; details: cited from earlier work
# [9] = test system: α-glucosidase; set-up: method as in PMID 24436963; details: cited from earlier work
# [10] = test system: two weeds; set-up: method as in PMID 11076561; details: cited from earlier work
# [11] = test system: HDAC; set-up: method as in PMID 15808449, PMID 31201063; details: cited from earlier work
# [12] = test system: A. sydowii DL1045; test: effect of SAHA on growth and fermentation of A. sydowii DL1045; type: cell-based, Aspergillus sydowii DL1045
# Experimental: After A. sydowii DL1045 in rice extract culture medium was treated with three different histone deacetylase inhibitors, including suberoylanilide hydroxamic acid (SAHA), […] and nicotinamide, the fermentation status of the fungi was observed. […] The fermentation broth of A. sydowii DL1045 in the control group was dark green, whereas the fermentation broth in the 250 μM SAHA treatment group was golden yellow (Figure 1a,b). In addition, after 10 days, the weight of metabolites was 3.5 times lower in the SAHA group than in the control group (Figure S1, Supplementary Materials). […] This conjecture was confirmed by the results of scanning electron microscopy, and after 10 days of fermentation, the spores detached from the sporangium after maturation in the later stage of fermentation (Figure 1c).
# A. sydowii DL1045 was retrieved from deep-sea mud sediment off the coast of Dalian, Liaoning Province, 121.55 °E and 38.88 °N, China. A. sydowii DL1045 was cultivated on potato dextrose agar (PDA) medium, consisting of 200 g/L of potato, 30 g/L of NaCl, 15 g/L of agar, and 20 g/L of dextrose and incubated for three days at 28 °C with 60% humidity. […]
Molecule,IC50 [3] [µM],IC50 [4] [µM],IC50 [5] [µM],IC50 [6] [µM],IC50 [7] [µM],further results
14-hydroxyterezine D,–,–,–,–,–,IC50 [1]: 7.31 µM
COc1ccc2c(c1)NC(=O)[C@@]21C=C2C(=O)N3CCC[C@H]3C(=O)N2[C@H]1C=C(C)C [6-methoxyspirotryprostatin B],–,–,–,–,–,IC50 [1]: 8.29 µM
COc1ccc2c(C[C@@H]3NC(=O)[C@@H]4CCCN4C3=O)c(C(=O)C=C(C)C)[nH]c2c1 [18-oxotryprostatin A],–,–,–,–,–,IC50 [1]: 1.28 µM
"C/C(=C/CCC(C)C)c1ccc(CO)cc1O [(Z)-5-(Hydroxymethyl)-2-(6′) methylhept-2′-en-2′-yl)-phenol, reference compound]",–,–,–,–,–,MIC against K. pneumonia [2]: 10.7 mM
"Cc1cc(O)cc(Oc2cc(C)cc(O)c2)c1 [Compound A3, diorcinol]",0.96 ± 0.02,> 20,> 20,4.03 ± 0.13,50,MIC against K. pneumonia [2]: 21.7 mM
"C/C(=C\CCC(C)C)c1ccc(CO)cc1O [Compound A4, aspergillusene A]",8.69 ± 0.26,> 20,9.65 ± 0.73,> 20,> 100,MIC against K. pneumonia [2]: 21.4 mM
"COC(=O)/C=C/c1cc(OC)c(OC)c(OC)c1 [Compound A6, methyl trimethoxycinnamate]",–,–,–,–,–,inhibitory activity against Staphylococcus aureus [8]: showed inhibitory activity against Staphylococcus aureus
"COc1ccc([C@H]2N[C@H](CO)[C@@H](O)[C@@H]2O)cc1O [Compound A7, radicamine A]",–,–,–,–,–,α-glucosidase inhibitory activity [9]: exhibit α-glucosidase inhibitory activity
"Cc1cc(O)cc(OC(=O)c2c(C)cc(O)cc2O)c1 [Compound A9, lecanorin]",6.01 ± 0.18,> 20,7.6 ± 0.21,7.4 ± 0.08,> 100,inhibition of radicle growth and germination of two weeds [10]: markedly inhibited the radicle growth and germination of the two weeds
"Cc1cc(Oc2cc(O)cc(C)c2C(=O)O)cc(O)c1C(=O)O [Compound A13, diorcinol acid]",2.16 ± 0.23,> 20,> 20,4.46 ± 0.16,> 100,–
"COC(=O)CCCCCCC(=O)Nc1ccccc1 [Compound S1, methyl 8-oxo-8-(phenylamino) octanoate]",–,–,–,–,–,HDAC inhibitory activity [11]: displayed HDAC inhibitory activity
"O=C(O)CCCCCCC(=O)Nc1ccccc1 [Compound S2, suberanilic acid]",–,–,–,–,–,HDAC inhibitory activity [11]: displayed HDAC inhibitory activity
"O=C(CCCCCCC(=O)Nc1ccccc1)NO [SAHA, suberoylanilide hydroxamic acid]",–,–,–,–,–,"effect on mycelial growth and spore germination ([12]; 250 μM SAHA, 10 days, scanning electron microscopy): inhibited mycelial growth and spore germination; weight of metabolites, times lower in SAHA group than in control group ([12]; after 10 days, ethyl acetate extract (Figure S1)): 3.5 times"
